What was measured:
MMP and Rho signaling = test: Western blot of MMP and Rho signaling in TIC cells; format: cell-based; settings: TIC cells (FIG. 7E)
Protocol: Western Blotting: Total protein lysates were prepared from livers and cells in lysis buffer containing 50 mM Tris, pH 8.0, 1% Nonidet™ P-40, 150 mM NaCl, 0.5% sodium deoxycholate, 0.1% SDS with protease inhibitors (Thermo Fisher Scientific) and subjected to immunoblotting. Nuclear and cytoplasmic subcellular fractions were prepared using NE-PER nuclear and cytoplasmic extraction reagents (Pierce) according to the manufacturer's instructions. The blot was incubated with a primary antibody, followed by a secondary antibody conjugated to horseradish peroxidase. ECL kit (Pierce) was used to detect the reactivity. The following antibodies were obtained from Cell Signaling Technology: HMGB2, HMGB1, AKT, p-AKT, mTOR, p-mTOR, ERK1/2, pERK1/2, Raptor, Rictor, p53, p21, p-Bad, Smad4, p-Smad2/3, Lamin A/C, a-SMA, MMP2, MMP9, TIMP1, RhoA, Rho-GTP, Cdc42, Rac1/2/3. Anti-HA antibody and anti-beta actin antibody were purchased from Sigma and Santa Cruz Biotechnology, respectively.
Cell Lines The LX-2 human stellate cell line was maintained in Dulbecco's Modified Eagle's Medium (DMEM) supplemented with 2% fetal bovine serum (FBS), 100 IU/ml penicillin, and 100 μg/ml streptomycin. Human hepatocellular carcinoma (HCC) MHCC97H cells were maintained in DMEM supplemented with 10% FBS, 100 IU/ml penicillin, and 100 μg/ml streptomycin, 1 mM HEPES, 1 mM sodium pyruvate, 2 mM L-glutamine. Tumor-initiating (TIC) cells were obtained from Dr. Hidekazu Tsukamoto at University of Southern California and were maintained in 1:1 DMEM:F12 supplement with 100 U/ml penicillin and 100 μg/ml streptomycin, 2 mM glutamine, 20 ng/ml mouse EGF, 10 nM dexamethasone, 1× embryomax nucleotides. All the cells were maintained at 37° C. humidified atmosphere with 5% CO2. TIC cells were infected with Hmgb2 shRNA lentivirus for 48 hr, and treated with 500 ng/ml puromycin for 2 weeks. The stable cells were used for migration and invasion assay, as well as western blot.

CGR8 ES cells = test: CGR8 ES cell differentiation and EB formation; format: cell-based, mouse
Protocol: Cell culture, Cell transfection:HEK293T, Hela, Hep3B and MHCC97H cells were cultured and transfected using X-tremeGENE™ HP DNA transfection reagent (Roche) as described previously. CGR8 ES cells were cultured on 0.1% gelatin coated tissue-culture dish in knockout DMEM medium containing 15% ES qualified-Fetal Bovine Serum, 2 mM L-glutamin, 0.1 mM NEAA, 0.1 mM β-mercaptoethanol, 50 μg/ml penicillin-streptomycin and 10 ng/ml Leukemia inhibitory factor (LIF). TIC cells were cultured in DMEM-F12 medium containing Embryomax nucleotides, 2 mM L-glutamin, 0.1 mM NEAA, 20 ng/ml mouse EGF, 50 μg/ml penicillin-streptomycin and […].
ES cells EB formation and TICs spheroid assay: CGR8 ES cells were trypsinized into single cells and cultured in ES medium devoid of LIF in hanging drops (900 cells per EB) for 2 d and transferred to ultralow attachment plate for a further 2 d suspension culture. Then, EBs were plated onto gelatin coated tissue-culture plate for further 7 d spontaneously differentiation.
FIGS. 10A-C show the establishment of CGR8 cell culture and differentiation. […] Undifferentiated feeder-free CGR8 ES cells were maintained on 0.1% gelatin coated 6-cm tissue-culture dish in ES medium containing 10 ng/ml Leukemia inhibitory factor (LIF). For EB formation, CGR8 ES cells were trypsinized into single cells and cultured in ES medium devoid of LIF in hanging drops (900 cells per EB) for 2 d and in suspension culture for a further 2 d. Then, EBs were transferred onto gelatin coated tissue-culture plate for further spontaneously differentiation. ES withdraw LIF 2d, CGR8 ES cells were cultured in ES medium devoid of LIF for 2 d.
FIG. 14A is Left, Western blot of HMGB2 and SOX2 protein in HEK293T cells transfected with 0.5 μg […] expression plasmid and 0, 1 or 2 μg Flag-HMGB2 expression plasmid. Right, Western blot of HMGB2 and OCT4 protein in HEK293T cells transfected with 0.5 μg HA-OCT4 expression plasmid and 0, 1 or 2 μg Flag-HMGB2 expression plasmid. […] CGR8 cells were lysed, co-immunoprecipitated with OCT4 antibody, followed by Western blot with HMGB2 or OCT4 antibodies. FIG. 14 C is a luciferase reporter assay. HepG2 cells were infected with AAV8-GFP or AAV8-HMGB2 24 hrs before being transfected with 6*OS luciferase reporter and OCT4, SOX2 expression plasmids alone or in combination.

Q: For `CC1(C)Oc2cc(O)ccc2C2C1=CCn1c(=O)n(-c3ccccc3)c(=O)n12` (stereo not shown) [ICM, inflachromene], which MMP signaling (MMP and Rho signaling) is on record?
A: decreased

Q: And the Rho signaling (MMP and Rho signaling)?
A: decreased

Q: What about the CGR8 differentiation (CGR8 ES cells; 5 μM ICM versus DMSO (FIG. 14E)) of the same compound?
A: induces CGR8 differentiation

Q: How did the MMP signaling (MMP and Rho signaling) turn out when “shHMGB2: small hairpin RNA against HMGB2 (SEQ ID NO: 8), delivered by AAV or lentivirus (CCGGGCTCAACATTAGCTTCAGTATCTCGAGATACTGAAGCTAATGTTGAGCTTTTTG)” was run?
A: decreased

Q: What about the Rho signaling (MMP and Rho signaling) of the same compound?
A: decreased

Q: What about the “spheroid formation of CGR8 cells” value (CGR8 ES cells; EB formation, AAV8 infection versus AAV8-Null (FIG. 14D)) of the same compound?
A: decreases spheroid formation

Q: And the CGR8 differentiation (CGR8 ES cells; knockdown of HMGB2 (summary))?
A: promotes CGR8 differentiation

Source: US20180320177A1, “COMPOSITIONS AND METHODS FOR THE TREATMENT OF LIVER FIBROSIS” (UNIVERSITY OF CONNECTICUT, priority 2015, published 2018)
